In the oligonucleotide strings, read from the 5' end, every base follows the letter of its sugar. An asterisk marks phosphorothioate; unmarked linkages are phosphodiester. Other units and linkages are bracketed, terminal groups are in braces. A string of capitals states the bases alone. e = 2'-O-(2-methoxyethyl) (MOE); [5mC] = 5-methylcytosine; d = 2'-deoxy (DNA)
Test system: human bcl-x mRNA
Assay: Northern blot analysis of bcl-x mRNA levels in A549 cells
Type: cell-based
Settings: 200 nM chimeric oligonucleotide
Procedure: Eighteen hours after antisense treatment, cell monolayers were washed twice with cold PBS and lysed in 1 mL RNAZOL™ (TEL-TEST “B” Inc., Friendswood, Tex.). Total RNA was prepared following manufacturer's recommended protocols. Twenty micrograms of total RNA was fractionated by electrophoresis through 1.2% agarose gels containing 1.1% formaldehyde using a MOPS buffer system (AMRESCO, Inc. Solon, Ohio). RNA was transferred from the gel to HYBOND™-N+ nylon membranes (Amersham Pharmacia Biotech, Piscataway, N.J.) by overnight capillary transfer using a Northern/Southern Transfer buffer system (TEL-TEST “B” Inc., Friendswood, Tex.). RNA transfer was confirmed by UV visualization. Membranes were fixed by UV cross-linking using a STRATALINKER™ UV Crosslinker 2400 (Stratagene, Inc, La Jolla, Calif.).
Membranes were probed using QUICKHYB™ hybridization solution (Stratagene, La Jolla, Calif.) using manufacturer's recommendations for stringent conditions with an 822-base pair bcl-x specific probe prepared by PCR from bases 33–855 of human bcl-xl sequence (Boise et al., 1993, Cell 74:597–608; GenBank accession no. L20121). To normalize for variations in loading and transfer efficiency membranes were stripped and probed for glyceraldehyde-3-phosphate dehydrogenase (GAPDH) RNA (Clontech, Palo Alto, Calif.). Hybridized membranes were visualized and quantitated using a PHOSPHORIMAGER™ and IMAGEQUANT™ Software V3.3 (Molecular Dynamics, Sunnyvale, Calif.). Data was normalized to GAPDH levels in untreated controls.
Oligonucleotides were tested by Northern blot analysis as described in Example 14. Oligonucleotides were tested in A549 cells at a concentration of 400 nM. The results are Table 2:
Oligonucleotides were tested by Northern blot analysis as described in Example 14. Chimeric oligonucleotides were in A549 cells at a concentration of 200 nM. Where present, “N.D.” indicates “not determined”.

Row | Substance | % CONTROL (bcl-x mRNA levels) [%] | % INHIB (bcl-x mRNA levels) [%]
1 | 16003 (antisense eA*eG*eT*eG*eG*dC*dT*dC*dC*dA*dT*dT*dC*dA*dC*e[5mC]*eG*e[5mC]*eG*eG) [compound 16003] | 12 | 88
2 | 16010 (antisense eT*e[5mC]*e[5mC]*eA*eA*dG*dC*dT*dG*dC*dG*dA*dT*dC*dC*eG*eA*e[5mC]*eT*e[5mC]) [compound 16010] | 13 | 87
3 | 16006 (antisense e[5mC]*eT*eG*eT*eT*dC*dA*dA*dA*dG*dC*dT*dC*dT*dG*eA*eT*eA*eT*eG) [compound 16006] | 28 | 72
4 | 16014 (antisense eA*eG*e[5mC]*eG*eT*dT*dC*dC*dT*dG*dG*dC*dC*dC*dT*eT*eT*e[5mC]*eG*eG) [compound 16014] | 22 | 78
5 | 16007 (antisense eT*eA*e[5mC]*e[5mC]*e[5mC]*dC*dA*dT*dC*dC*dC*dG*dG*dA*dA*eG*eA*eG*eT*eT) [compound 16007] | 31 | 69
6 | 16000 (antisense eG*eG*eG*e[5mC]*e[5mC]*dT*dC*dA*dG*dT*dC*dC*dT*dG*dT*eT*e[5mC]*eT*e[5mC]*eT) [compound 16000] | 4 | 96
7 | 16011 (antisense e[5mC]*eT*eG*eG*eA*dT*dC*dC*dA*dA*dG*dG*dC*dT*dC*eT*eA*eG*eG*eT) [compound 16011] | 31 | 69
8 | 16004 (antisense e[5mC]*eT*eT*eG*e[5mC]*dT*dT*dT*dA*dC*dT*dG*dC*dT*dG*e[5mC]*e[5mC]*eA*eT*eG) [compound 16004] | 5 | 95
9 | 16018 (antisense eG*eA*eG*eG*eG*dT*dA*dG*dA*dG*dT*dG*dG*dA*dT*eG*eG*eT*e[5mC]*eA) [compound 16018] | 40 | 60
10 | 16001 (antisense eT*e[5mC]*e[5mC]*eA*eT*dC*dT*dC*dC*dG*dA*dT*dT*dC*dA*eG*eT*e[5mC]*e[5mC]*e[5mC]) [compound 16001] | 17 | 83
11 | 15999 (antisense eT*e[5mC]*e[5mC]*e[5mC]*eG*dG*dT*dT*dG*dC*dT*dC*dT*dG*dA*eG*eA*e[5mC]*eA*eT) [compound 15999] | 4 | 96
12 | 16019 (antisense eG*eG*eA*eG*eG*dA*dT*dG*dT*dG*dG*dT*dG*dG*dA*eG*e[5mC]*eA*eG*eA) [compound 16019] | 40 | 60
13 | 16015 (antisense eG*eT*e[5mC]*eA*eT*dG*dC*dC*dC*dG*dT*dC*dA*dG*dG*eA*eA*e[5mC]*e[5mC]*eA) [compound 16015] | 12 | 88
14 | 16005 (antisense eG*e[5mC]*e[5mC]*eG*eG*dT*dA*dC*dC*dG*dC*dA*dG*dT*dT*e[5mC]*eA*eA*eA*e[5mC]) [compound 16005] | 17 | 83
15 | 15998 (antisense eT*eA*eA*eT*eA*dG*dG*dG*dA*dT*dG*dG*dG*dC*dT*e[5mC]*eA*eA*e[5mC]*e[5mC]) [compound 15998] | 13 | 87
16 | 16002 (antisense eA*eG*eG*eT*eG*dC*dC*dA*dG*dG*dA*dT*dG*dG*dG*eT*eT*eG*e[5mC]*e[5mC]) [compound 16002] | 8 | 92

Same assay, conditions: 400 nM oligonucleotide

Row | Substance | % CONTROL (bcl-x mRNA levels) [%] | % INHIB (bcl-x mRNA levels) [%]
17 | 11229 (antisense dA*dC*dC*dA*dG*dT*dC*dC*dA*dT*dT*dG*dT*dC*dC*dA*dA*dA*dA*dC) [compound 11229] | 60 | 40
18 | 11993 (antisense dT*dC*dA*dT*dT*dC*dA*dC*dT*dA*dC*dC*dT*dG*dT*dT*dC*dA*dA*dA) [compound 11993] | 142 | 
19 | 11223 (antisense dC*dA*dG*dT*dG*dC*dC*dC*dC*dG*dC*dC*dG*dA*dA*dG*dG*dA*dG*dA) [compound 11223] | 9 | 91
20 | 11228 (antisense dC*dC*dG*dG*dT*dT*dG*dC*dT*dC*dT*dG*dA*dG*dA*dC*dA*dT*dT*dT) [compound 11228] | 31 | 69
21 | 11230 (antisense dG*dA*dA*dG*dG*dG*dA*dG*dA*dG*dA*dA*dA*dG*dA*dG*dA*dT*dT*dC) [compound 11230] | 135 | 
22 | 11221 (antisense dA*dG*dC*dC*dC*dA*dG*dC*dA*dG*dA*dA*dC*dC*dA*dC*dG*dC*dC*dG) [compound 11221] | 11 | 89
23 | 11222 (antisense dG*dT*dT*dG*dA*dA*dG*dC*dG*dT*dT*dC*dC*dT*dG*dG*dC*dC*dC*dT) [compound 11222] | 35 | 65
24 | 11226 (antisense dA*dT*dT*dC*dA*dG*dT*dC*dC*dC*dT*dT*dC*dT*dG*dG*dG*dG*dC*dC) [compound 11226] | 34 | 66
25 | 11220 (antisense dC*dA*dG*dT*dG*dT*dC*dT*dG*dG*dT*dC*dA*dT*dT*dT*dC*dC*dG*dA) [compound 11220] | 12 | 88
26 | 11227 (antisense dA*dA*dA*dG*dT*dC*dA*dA*dC*dC*dA*dC*dC*dA*dG*dC*dT*dC*dC*dC) [compound 11227] | 10 | 90
27 | 11225 (antisense dC*dA*dG*dT*dG*dG*dC*dT*dC*dC*dA*dT*dT*dC*dA*dC*dC*dG*dC*dG) [compound 11225] | 25 | 75
28 | 11219 (antisense dC*dG*dG*dG*dT*dT*dC*dT*dC*dC*dT*dG*dG*dT*dG*dG*dC*dA*dA*dT) [compound 11219] | 6 | 94
29 | 11224 (antisense dT*dC*dG*dC*dC*dT*dG*dC*dC*dT*dC*dC*dC*dT*dC*dA*dG*dC*dG*dC) [compound 11224] | 6 | 94

Same assay, conditions: dose-response, Northern blot

Row | Substance | IC50 [nM]
30 | CGGGTTCTCCTGGTGGCAAT (all phosphorothioate, sugars by position and methylation of C not given here; further chemistry not fully specified) [ISIS 11219] | ~250
31 | 11224 (antisense dT*dC*dG*dC*dC*dT*dG*dC*dC*dT*dC*dC*dC*dT*dC*dA*dG*dC*dG*dC) [compound 11224] | ~175

Test system: bcl-xs/bcl-xl mRNA ratio
Assay: RNase protection assay, bcl-xs/bcl-xl mRNA ratio in A549 cells
Type: cell-based, human
Settings: A549 cells, RPA, 200 nM; no oligo = 1
Description: The ribonuclease (RNase) protection assay is a sensitive and specific method for quantitating expression levels (Zinn, et al., Cell, 1983, 34:865–79). The method is based on the hybridization of a target RNA to an in vitro transcribed ^32P-labeled anti-sense RNA probe from a DNA template. RNase treatment follows, resulting in degradation of single-stranded RNA and excess probe. The probe and target RNA are resolved by denaturing polyacrylamide gel electrophoresis with the “protected” probe visualized using autoradiography or beta imaging equipment. Template sets can be purchased (PharMingen Inc., San Diego Calif.) which contain a series of biologically relevant templates, each of distinct length and each representing a sequence in a distinct mRNA species. Each template set is capable of detecting up to 11 unique gene messages in a single reaction mix in addition to one or more housekeeping genes, L32 and GAPDH, which serve as internal controls. These template sets allow for multiple determinations to be made from a single sample. Multi-probe RPA can be performed on total RNA preparations derived by standard methods, without further purification of poly-A+ RNA.
Oligonucleotides were evaluated for their respective effects on bcl-xs and bcl-xl mRNA levels along with total bcl-x mRNA levels, using the RIBOQUANT™ RNase protection kit (Pharmingen, San Diego Calif.). All assays were performed according to manufacturer's protocols. Briefly, multi-probe DNA template sets were used to generate antisense RNA transcripts radiolabeled with […]. The template set used for apoptosis genes was the human hAPO-2 set. These radiolabeled probes were hybridized overnight with typically 10 μg of total cellular RNA. The reaction mixture was then digested with single-strand RNases to generate the protected fragments which were electrophoresed through a 5% acrylamide/urea gel. Protected bands were visualized and quantitated using a PhosphorImager (Molecular Dynamics, Sunnyvale Calif.).
Human bcl-x has two forms, a long form known as bcl-xl and a short form known as bcl-xs. […] The protein of bcl-xl is similar in size and structure to bcl-2, and could inhibit cell death upon growth factor withdrawal. The protein of bcl-xs is 63 amino acids shorter than bcl-xl. It could inhibit the bcl-2 function, thus promoting programmed cell death (apoptosis). Oligonucleotides were evaluated for their respective effects on bcl-xs and bcl-xl mRNA levels along with total bcl-x mRNA levels, using the RIBOQUANT™ RNase protection kit (Pharmingen, San Diego Calif.). All assays were performed according to manufacturer's protocols.
These oligonucleotides were tested for their inhibitory effects on bcl-xl and bcl-xs mRNA levels in A549 cells, as detected by RPA analysis. Oligonucleotide concentration was 200 nM.

Row | Substance | bcl-xs/bcl-xl Fold difference [fold]
32 | TGGTTCTTACCCAGCCGCCG (all 2'-MOE, all phosphorothioate, methylation of C not given here) [ISIS 105751] | 45

From US7148204B2, “Antisense modulation of bcl-x expression” (Isis Pharmaceuticala, Inc., priority 1998, dated 2006)
